Experiments:
NQO1 = NQO1 (Homo sapiens, UniProt P15559); experiment: Fluorescent response of NIR-ASM towards NQO1; assay type: biochemical; set-up: purchased Sigma-Aldrich D1515
Procedure: Fluorescent response of NIR-ASM towards NQO1. To unequivocally establish that NIR-ASM is a highly specific sensor for NQO1, the inventors first investigated its spectral properties were systematically studied in simulated physiological conditions 0.1% BSA containing PBS, BSA used as a stabilizing agent, pH 7.4) at 37° C., and the results are given in FIGS. 9D and 9E. […] However, upon addition of NQO1, the absorption at 403 nm disappears and a prominent absorption at 465 nm emerges; Along with the bathochromic shift of UV/Vis absorption, a distinct color change from yellow to red was observed after 30 min of incubation with NQO1. […] However, the reaction of the probe with NQO1 produced a strong fluorescence emission band at 646 nm with a large Stokes shift ([…]) (FIG. 9F), which is highly advantageous for bioimaging analysis, because of non-overlapping excitation and emission wavelengths. Next, the fluorescence response of NIR-ASM to NQO1 at varying concentrations (0-2.5 μg/mL) was studied. […] Also, the fluorescence enhancement was directly proportional to the enzyme concentration in the range of 0.125-2.5 μg/mL (R^2=0.9919, FIG. 9G). The NQO1 detection limit (LOD) of NIR-ASM was calculated to be as low as 0.191 μg/mL, based on the standard deviation of the response (Sy) and the slope of the calibration curve (S) according to the formula: LOD=3.3(Sy/S).
Spectroscopic measurements. NIR-ASM was dissolved with DMSO to prepare a stock solution, which was then diluted with enzyme reaction buffer (PBS containing 2.5 μg/mL, 100 μM NADH and 0.1% BSA) to prepare different concentrations of the probe for UV/Vis and fluorescence measurement. Time-dependent fluorescence intensity changes for different concentrations of NIR-ASM in the presence of NQO1 (2.5 μg/mL) and 100 μM NADH were measured using Clear bottom 96 well black plate and microplate reader. Fluorescence (ex. 460 nm and em. 646 nm) was quantitated every minute for 90 min with 20 seconds of shaking in between intervals.

[1] = test system: Lewis Lung carcinoma (LLC) tumors; experiment: In vivo and ex vivo NIRF imaging with NIR-ASM in Lewis Lung carcinoma (LLC) lung cancer model; set-up: species or system C57BL/6 mice
From the text: Whether still in-situ or already disseminated, early diagnosis of cancer is an essential requirement for successful therapy. Although NQO1 is expressed at higher levels in cancers compared to a diminished or absent status in normal tissues, the diagnostic potential of existing NQO1 specific fluorescent probes has not been realized. Therefore, the inventors evaluated the non-invasive diagnostic ability of NIR-ASM in a metastatic syngeneic lung cancer model to mimic the clinical situation. Lung cancer was established in C57BL/6 mice by injecting Lewis Lung carcinoma (LLC) cells (0.5×10^6 per animal) intravenously. This cell line is highly tumorigenic and is primarily used to model metastasis as well as evaluate the efficacy of chemotherapeutic agents in vivo.^44 The LLC cells have ˜80 units of NQO1 activity compared to <10 units in healthy mouse lungs.^45 Two weeks after the implantation, the animals received NIR-ASM (5 mg/kg) intravenously. […] There are several routes for drug elimination from the body and the majority of drugs are eliminated by pathways that involve the kidneys.
In vivo bioimaging. The animal study protocol was approved by the Institutional Animal Use and Care Committee (IACUC), Texas Tech University Health Sciences Center, Protocol number: 07050. All experimental protocols used in this study were approved by IACUC, Texas Tech University Health Sciences Center and all the methods were carried out according to the committee guidelines. Female athymic nude mice (nu/nu, 4-6 weeks) were purchased from Charles River Laboratories (Wilmington, MA, USA). BALB/c57 mice were provided by Dr. Constantinos Mikelis of our University. To establish A549 or MDA-MB-231 xenografts, a total of 5×10^6 cells (in 0.1 ml of serum-free media and Matrigel (1:1)) were subcutaneously injected into the flanks of the mice. For developing orthotopic lung cancer models, LLC cells (0.5×10^6) were intravenously injected into the tail veins of female BALB/c57 mice. All animals were monitored for activity, physical condition, body weight, and tumor growth. To detect endogenous NQO1 activity, NIR-ASM was dissolved in a vehicle of composition, PEG-300:EtOH:saline (60:30:10, v/v/v) and given intravenously through tail vein injection. The animals were imaged at different time intervals with excitation/emission filters of 500/640 nm using the IVIS Lumina XR Imaging system. At the end of the experiments, the xenografted tumors, hearts, lungs, livers, kidneys, spleens, and brains were removed and imaged to confirm the signal locations. Fluorescence represented in log values of radiance is photons per second per square centimeter per steradian.

[2] = NIR-ASM tolerability and toxicity in vivo; set-up: species or system CD1 mice; conditions: 5 mg/kg five times a week for five weeks
Procedure: Assessment of NIR-ASM biocompatibility. Inspired by the excellent photophysical properties of NIR-ASM in monitoring the NQO1 activity in vitro, the inventors determined the biocompatibility of NIR-ASM both in vitro and in vivo before using for endogenous applications. […] Further, to evaluate NIR-ASM tolerability and toxicity in vivo, CD1 mice were grouped for the administration of vehicle (PEG:H2O:EtOH) alone or 5 mg/kg of NIR-ASM five times a week for five weeks. The average mouse weights were monitored as a surrogate marker to the toxicity.
Hematoxylin and eosin (H&E) staining. The hematoxylin and eosin staining were performed as described previously. Briefly, freshly dissected tissues were snap freeze and store at −20° C. for overnight. Frozen tissues were cut into […] slices, the sections were stained in Mayer's Hematoxylin and Eosin solution. Finally, the sections were dehydrated and mounted with Permount in a fume hood. The results were analyzed under a phase-contrast Olympus microscope (Olympus America Inc).

Sequence of NQO1 (P15559 whole entry): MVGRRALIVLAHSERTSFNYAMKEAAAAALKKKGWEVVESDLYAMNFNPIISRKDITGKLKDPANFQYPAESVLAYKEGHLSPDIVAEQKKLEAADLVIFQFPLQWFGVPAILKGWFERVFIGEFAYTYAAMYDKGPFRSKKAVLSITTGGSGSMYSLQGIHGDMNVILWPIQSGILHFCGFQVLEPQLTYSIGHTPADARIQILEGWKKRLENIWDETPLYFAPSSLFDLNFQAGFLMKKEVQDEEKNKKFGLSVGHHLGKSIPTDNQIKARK

Structure (SMILES): CC1=C(C)C(=O)C(C(C)(C)CC(=O)Nc2ccc(/C=C/C3=CC(=C(C#N)C#N)CC(C)(C)C3)cc2)=C(C)C1=O [NIR-ASM, (E)-N-(4-(2-(3-(dicyanomethylene)-5,5-dimethylcyclohex-1-en-1-yl)vinyl)phenyl)-3-methyl-3-(2,4,5-trimethyl-3,6-dioxocyclohexa-1,4-dien-1-yl)butanamide]
- enzyme concentration range in which fluorescence enhancement was directly proportional (NQO1; 100 μM NADH): 0.125 to 2.5 µg/mL
- NQO1 detection limit (LOD) (NQO1; LOD=3.3(Sy/S)): 0.191 µg/mL
- time to maximum emission at 646 nm (NQO1; NQO1 2.5 μg/mL): 30 min
- Stokes shift (NQO1; after reaction with NQO1): 186 nm
- fluorescence emission band (NQO1; after reaction with NQO1): 646 nm
- absorption band (NQO1; before addition of NQO1, PBS 0.1% BSA pH 7.4, 37° C.): 403 nm
- absorption (NQO1; upon addition of NQO1): 465 nm
- time of maximum fluorescence intensity ([1]; 5 mg/kg intravenous): 30 min
- NIRF signal intensity of tumor-bearing lungs compared to other selected organs ([1]; 5 mg/kg intravenously, two weeks after implantation): more than 100 fold
- route of elimination ([1]; fluorescence observed in kidneys during ex vivo NIRF imaging): renal excretion might play an important role
- fluorescence in the lungs of healthy mice ([1]; non-tumor-bearing mouse, intravenous NIR-ASM): no fluorescence observed
- histological features (brain, heart, lung, liver, spleen, kidney; H&E) ([2]; versus control): no significant differences
- average body weights ([2]; versus vehicle): no remarkable changes

Reference: US11957766B2, “HNQO1-activatable fluorescent probe for imaging cancer cells in-vitro and in-vivo” (Texas Tech University System, priority 2019, dated 2024)
